Test results taken from US20050192245A1, “Medicinal composition for treating arteriosclerosis” (SANKYO COMPANY, LIMITED, priority 2002, published 2005).

Test system: atherogenic lesions of the right femoral artery (arteriosclerosis)
Experiment: Atherogenic lesions in cholesterol diet-loaded rabbits with Nylon thread-induced chronic endothelial damage (right femoral artery)
Type: in vivo, male New Zealand White rabbits
Details: oral, 8 weeks
Experimental: A test was conducted in which male New Zealand White rabbits (body weights: 1.0 to 1.5 kg) were loaded for 10 weeks with a cholesterol diet (0.5% cholesterol, 3% peanut oil and 3% coconut oil) in the amounts indicated below. The animals were fed 40 g for the first two weeks, 50 g for the next four weeks, and 60 g for the final four weeks. Two weeks after cholesterol diet loading, a Nylon thread was aseptically inserted from the right femoral artery to the vicinity of the diaphragm to induce chronic endothelial damage in the abdominal aorta and right femoral artery. The Nylon thread was immobilized for 8 weeks at the insertion site. Following surgery to insert the Nylon thread, the animals were grouped so that the average values of serum total cholesterol, triglycerides, platelet aggregation and body weight of each group were nearly equal, followed by oral administration of the ADP receptor antagonist and the ACAT inhibitor either alone or combined. After necrotomy of the animals 8 weeks after administration, the right femoral arteries were excised and the ratio of the surface area covered by atherogenic lesions was calculated. After exposing the right femoral artery (by 1 cm from the branch of the iliac artery), it was photographed with a digital camera (COOLPX990, Nikon) followed by measurement of the surface area of the lumen and the surface area covered by atherogenic lesions using an image analyzer, and calculation of the ratio of the surface area covered by atherogenic lesions relative to the surface area of the aorta lumen as a percentage. In addition, a section 1 cm from the branch of the iliac artery on the side of the femoral artery was cut out and after fixing in methanol-carnoy solution, was embedded in a paraffin block. After slicing into thin sections, the sections were immunostained using Elastica-Masson stain and anti-human α-actin antibody (1A4) followed by calculating the degree of medial intimal thickness and the smooth muscle cell occupancy rate using an image analyzer. In the table, Compound A represent 2-acetoxy-5-(α-cyclopropylcarbonyl-2-fluorobenzyl)-4,5,6,7-tetrahydrothieno[3,2-c]pyridine, and Compound B represents sulfate of N-(1-octyl-5-carboxymethyl-4,6-dimethylindolin-7-yl)-2,2-dimethylpropanamide.

| SMILES | Medial intimal thickness (%) (Compound A 1 mg/kg) | Ratio of lesion surface area (%) (Compound A 1 mg/kg) | Smooth muscle cell occupancy rate in lesion at 1 mg/kg (Oryctolagus cuniculus, 1344 h, Compound A 1 mg/kg) | Medial intimal thickness (%) (Compound B 3 mg/kg) | Ratio of lesion surface area (%) (Compound B 3 mg/kg) | Smooth muscle cell occupancy rate (%) (Compound B 3 mg/kg) |
| --- | --- | --- | --- | --- | --- | --- |
| CC(=O)Oc1cc2c(s1)CCN(C(C(=O)C1CC1)c1ccccc1F)C2 (stereo not drawn) [Compound A, 2-acetoxy-5-(α-cyclopropylcarbonyl-2-fluorobenzyl)-4,5,6,7-tetrahydrothieno[3,2-c]pyridine] | 275.4 ± 153.4% | 47.2 ± 14.2% | 5.5 ± 1.5% |  |  |  |
| CCCCCCCCN1CCc2c(C)c(CC(=O)O)c(C)c(NC(=O)C(C)(C)C)c21.O=S(=O)(O)O [Compound B, sulfate of N-(1-octyl-5-carboxymethyl-4,6-dimethylindolin-7-yl)-2,2-dimethylpropanamide] |  |  |  | 60.0 ± 34.2 % | 40.6 ± 19.8 % | 25.6 ± 14.8 % |
